Legend:
Septoria nodorum = assay: Fungicidal test, Septoria nodorum (LEPTNO) on wheat, PRCO; type: in vivo; conditions: METHOD 2 (unbanded)
Pyricularia oryzae = type: in vivo; conditions: METHOD 2 (unbanded)
Meloidogyne incognita = assay: Nematode test, J2 infective juveniles of Meloidogyne incognita, mortality; conditions: 12.5 ppm; J2 infective juveniles suspended in solution; mortality after three days
Uncinula necator = assay: Fungicidal test, Uncinula necator (UNCINE) on vines, PRCO; type: in vivo; conditions: METHOD 2 (unbanded)
Venturia inaequalis = assay: Fungicidal test, Venturia inaequalis (VENTIN) on apples, PRCO; type: in vivo; conditions: METHOD 2 (unbanded)
[1] = system: Erysiphe graminis f.sp. tritici; assay: Fungicidal test, Erysiphe graminis f.sp. tritici (ERYSGT) on wheat, PRCO; type: in vivo; conditions: METHOD 2 (unbanded)
Puccinia recondita = assay: Fungicidal test, Puccinia recondita (PUCCRT) on wheat, PRCO; type: in vivo; conditions: METHOD 2 (unbanded)
[2] = system: Phytophthora infestans lycopersici; type: in vivo; conditions: METHOD 2 (unbanded)
Musca domestica = conditions: 500 ppm by weight; knockdown assessed 15 minutes after treatment

Structure (SMILES) | LEPTNO 1 d Prot/Foir PRCO (Septoria nodorum) | PYRIOR 1 d Prot/Foir PRCO (Pyricularia oryzae) | MELGIN = Meloidogyne incognita, grading of mortality (score) (Meloidogyne incognita) | UNCINE 1 d Prot/Foir PRCO (Uncinula necator) | VENTIN 1 d Prot/Foir PRCO (Venturia inaequalis) | ERYSGT 1 d Prot/Foir PRCO [1] | PUCCRT 1 d Prot/Foir PRCO (Puccinia recondita) | PHYTIN 1 d Prot/Foir PRCO [2] | MUSCDO AC = Musca domestica (knockdown), score (Musca domestica) | ERYSGT 6 hr Prot/Foir PRCO [1]
Cc1nsc(NC(=O)Cc2ccc3oc(C4CC4)nc3c2)c1Cl [21(A3)] | 14 | 92 | 0 (0 indicates less than 40% mortality) | 44 | 50 | 35 | 100 |  |  | 
Cc1nsc(NC(=O)Cc2ccc3oc(C(C)Cl)nc3c2)c1Cl (racemic) [93(A3)] | 24 |  | 0 (0 indicates less than 40% mortality) | 10 | 6 | 32 | 38 | 49 |  | 
COCc1nc2cc(CC(=O)Nc3snc(C)c3Cl)ccc2o1 [130(A3)] | 21 | 93 | 0 (0 indicates less than 40% mortality) | 86 | 60 | 87 | 100 |  |  | 
Cc1nsc(NC(=O)Cc2ccc3oc(C=Cc4ccc([N+](=O)[O-])cc4)nc3c2)c1Cl [63(A3)] | 2 |  |  | 14 | 13 | 40 | 69 | 66 |  | 
Cc1nsc(NC(=O)Cc2ccc3oc(Cc4c(F)c(F)c(F)c(F)c4F)nc3c2)c1Cl [239(A3)] |  | 11 | 0 (0 indicates less than 40% mortality) | 51 | 5 | 23 | 3 |  |  | 
Cc1nsc(NC(=O)Cc2ccc3oc(O)nc3c2)c1Cl [351(A3)] |  |  | 0 (0 indicates less than 40% mortality) | 11 |  |  |  |  | 0 (0 indicates less than 40% mortality) | 
Cc1nsc(NC(=O)Cc2ccc3oc(-c4cccs4)nc3c2)c1Cl [330(A3)] | 37 |  | 0 (0 indicates less than 40% mortality) | 14 | 6 | 87 | 99 | 99 |  | 
Cc1nsc(NC(=O)Cc2ccc3oc(C(F)(F)F)nc3c2)c1Cl [75(A3)] | 27 | 78 | 0 (0 indicates less than 40% mortality) | 53 | 15 | 90 | 94 |  |  | 
Cc1nsc(NC(=O)Cc2ccc3oc(CC4CCCC4)nc3c2)c1Cl [42(A3)] | 11 |  | 0 (0 indicates less than 40% mortality) | 100 | 74 | 92 | 99 | 100 |  | 92
Cc1nsc(NC(=O)Cc2ccc3oc(CSc4ccccc4)nc3c2)c1Cl [173(A3)] | 2 |  | 0 (0 indicates less than 40% mortality) | −12 | 50 | 16 | 63 | 77 |  | 
Cc1nc2ccc(CC(=O)Nc3snc(C)c3Cl)cc2o1 [2(A23)] | 53 |  | 0 (0 indicates less than 40% mortality) |  |  | −3 | 77 | 100 | 0 (0 indicates less than 40% mortality) | 
CCCC(C)c1nc2cc(CC(=O)Nc3snc(C)c3Cl)ccc2o1 (stereo not drawn) [12(A3)] | 17 |  | 9 (9 indicates 80-100% mortality) | 100 | 63 | 95 | 100 | 100 |  | 
CCCc1nc2ccc(CC(=O)Nc3snc(C)c3Cl)cc2[nH]1 [4(A43)] | 0 | 38 |  | 35 |  |  | 31 | 0 |  | 
Cc1nsc(NC(=O)Cc2ccc3oc(-c4ccncc4)nc3c2)c1Cl [339(A3)] | 0 |  | 0 (0 indicates less than 40% mortality) |  |  | −7 | 31 | 0 | 0 (0 indicates less than 40% mortality) | 
Cc1nsc(NC(=O)Cc2ccc3oc(C4(C)CCCCC4)nc3c2)c1Cl [36(A3)] | 2 |  | 0 (0 indicates less than 40% mortality) | 99 | 44 | 72 | 91 | 100 |  | 
Cc1nsc(NC(=O)Cc2ccc3oc(C(c4ccccc4)c4ccccc4)nc3c2)c1Cl [246(A3)] | 27 |  | 0 (0 indicates less than 40% mortality) | −7 | 13 | 16 | 13 | 79 |  | 
Cc1nsc(NC(=O)Cc2ccc3oc(C4CCCCC4)nc3c2)c1Cl [35((A3)] |  | 98 |  | 100 | 70 |  |  |  |  | 
Cc1nsc(NC(=O)Cc2ccc3oc(-c4ccccc4Cl)nc3c2)c1Cl [253(A3)] | 8 |  | 0 (0 indicates less than 40% mortality) | 100 | 34 | 94 | 99 | 98 |  | 94
Cc1nsc(NC(=O)Cc2ccc3oc(-c4c(Cl)cc(C(F)(F)F)cc4Cl)nc3c2)c1Cl [244(A3)] | −2 | −2 | 0 (0 indicates less than 40% mortality) |  | 45 | 3 | 84 |  |  | 
COc1ccccc1-c1nc2cc(CC(=O)Nc3snc(C)c3Cl)ccc2o1 [305(A3)] | −2 |  | 0 (0 indicates less than 40% mortality) | 19 | −6 | 16 | 81 | 74 |  | 16
Cc1nsc(NC(=O)Cc2ccc3nc(CC(C)(C)C)[nH]c3c2)c1Cl [15(A43)] | 0 | 63 |  | 63 |  |  |  | 80 |  | 
Cc1nsc(NC(=O)Cc2ccc3oc(-c4ccncc4)nc3c2)c1Cl [339((A3)] |  | 33 |  | 26 | 8 |  |  |  |  | 
CCCc1nc2ccc(CC(=O)Nc3snc(C)c3Cl)cc2o1 [4(A23)] | 63 |  | 0 (0 indicates less than 40% mortality) |  |  | 59 | 100 | 100 | 0 (0 indicates less than 40% mortality) | 
